{
  "source": "paper PMC4188250",
  "about": "(Biochemistry, 2014)",
  "key": {"Cytochrome P450 4A11 [1]": {"molecular_target": "T1, Cytochrome P450 4A11 (Homo sapiens, UniProt Q02928)", "T1 sequence (Q02928 5-519)": "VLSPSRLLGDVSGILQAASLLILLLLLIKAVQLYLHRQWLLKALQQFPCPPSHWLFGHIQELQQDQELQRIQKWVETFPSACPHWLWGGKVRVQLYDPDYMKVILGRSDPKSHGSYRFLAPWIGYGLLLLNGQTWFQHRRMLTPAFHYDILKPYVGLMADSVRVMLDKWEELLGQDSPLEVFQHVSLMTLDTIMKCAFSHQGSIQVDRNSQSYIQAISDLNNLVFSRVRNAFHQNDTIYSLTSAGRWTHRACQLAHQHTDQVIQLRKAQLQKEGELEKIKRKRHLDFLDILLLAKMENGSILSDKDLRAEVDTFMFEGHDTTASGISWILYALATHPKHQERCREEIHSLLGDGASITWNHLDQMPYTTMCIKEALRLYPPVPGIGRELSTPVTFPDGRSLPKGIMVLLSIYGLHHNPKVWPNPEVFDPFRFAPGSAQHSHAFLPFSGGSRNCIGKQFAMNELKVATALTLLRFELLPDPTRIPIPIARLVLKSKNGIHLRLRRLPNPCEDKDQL", "experiment": "UV-visible spectral binding titration"}, "Cytochrome P450 4A11 [2]": {"molecular_target": "T1, Cytochrome P450 4A11", "experiment": "UV-visible spectral binding titration", "remark": "listed apart in the source"}},
  "note": "Read-outs that look alike come from different tables or passages of the source.",
  "data": [
    {"smiles": "O=C(O)CCCCCCCCCCCO", "note": "[12-OH lauric acid]", "values": [
      {"measurement": "Kd", "setting": "Cytochrome P450 4A11 [1]", "result": "5.1 ± 2.1", "unit": "µM"}
    ]},
    {"smiles": "CCCCCCCCCCCC(=O)O", "note": "[lauric acid, dodecanoic acid]", "values": [
      {"measurement": "Kd", "setting": "Cytochrome P450 4A11 [2]", "result": "6.7 ± 0.3", "unit": "µM"}
    ]}
  ]
}
